Data reported in PubChem BioAssay AID248 (DTP/NCI, 2004).
“And” between values parts separate entries of the source, which are not always exact repeats. Identical values can stand only once. Inconclusive results and toxic doses are left out. Rule as the data show it: active = T/C of 150% or more; inactive = T/C below 125%.

System: L1210 leukemia ip in BDF1 mice, survival T/C
Assay: NCI In Vivo Anticancer Drug Screen. Data for tumor model L1210 Leukemia (intraperitoneal) in B6D2F1 (BDF1) mice
Conditions: endpoint: mean survival time, higher = longer survival
In short: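 Value reflects the ratio of survival in compound-treated mice to survival in vehicle-treated controls, with both groups carrying the same transplanted tumor.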

[1] = dose: 100.0 mg/kg/injection, schedule: Q01DX009 (ip), vehicle: Klucel (hydroxypropylcellulose) (HPC)
[2] = dose: 100.0 mg/kg/injection, schedule: Q04DX003 (ip), vehicle: Klucel (hydroxypropylcellulose) (HPC)
[3] = dose: 200.0 mg/kg/injection, schedule: Q01DX009 (ip), vehicle: Klucel (hydroxypropylcellulose) (HPC)
[4] = dose: 200.0 mg/kg/injection, schedule: Q04DX003 (ip), vehicle: Klucel (hydroxypropylcellulose) (HPC)
[5] = dose: 400.0 mg/kg/injection, schedule: Q01DX009 (ip), vehicle: Klucel (hydroxypropylcellulose) (HPC)
[6] = dose: 400.0 mg/kg/injection, schedule: Q04DX003 (ip), vehicle: Klucel (hydroxypropylcellulose) (HPC)
[7] = dose: 100.0 mg/kg/injection, schedule: Q01DX001 (ip), vehicle: saline with Tween-80
[8] = dose: 100.0 mg/kg/injection, schedule: Q01DX009 (ip), vehicle: saline with Tween-80
[9] = dose: 100.0 mg/kg/injection, schedule: Q04DX003 (ip), vehicle: saline with Tween-80
[10] = dose: 200.0 mg/kg/injection, schedule: Q01DX001 (ip), vehicle: saline with Tween-80
[11] = dose: 200.0 mg/kg/injection, schedule: Q01DX009 (ip), vehicle: saline with Tween-80
[12] = dose: 200.0 mg/kg/injection, schedule: Q04DX003 (ip), vehicle: saline with Tween-80
[13] = dose: 400.0 mg/kg/injection, schedule: Q01DX001 (ip), vehicle: saline with Tween-80
[14] = dose: 400.0 mg/kg/injection, schedule: Q01DX009 (ip), vehicle: saline with Tween-80
[15] = dose: 400.0 mg/kg/injection, schedule: Q04DX003 (ip), vehicle: saline with Tween-80
[16] = dose: 50.0 mg/kg/injection, schedule: Q04DX002 (ip), vehicle: Klucel (hydroxypropylcellulose) (HPC)
[17] = dose: 100.0 mg/kg/injection, schedule: Q04DX002 (ip), vehicle: Klucel (hydroxypropylcellulose) (HPC)
[18] = dose: 50.0 mg/kg/injection, schedule: Q01DX009 (ip), vehicle: saline
[19] = dose: 100.0 mg/kg/injection, schedule: Q01DX009 (ip), vehicle: saline

Measured: T/C

CCN(CCCl)c1ccc(N=Nc2cc(Cl)ccc2Cl)cc1
inactive: [1] 103 % of control | [2] 104 % of control | [3] 115 % of control | [4] 97 % of control | [5] 105 % of control | [6] 104 % of control

CS(=O)(=O)OCc1c(O)c2c(c(O)c1COS(C)(=O)=O)C(=O)C=CC2=O
inactive: dose: 25.0 mg/kg/injection, schedule: Q01DX009 (ip), vehicle: water 94 % of control | dose: 50.0 mg/kg/injection, schedule: Q01DX009 (ip), vehicle: water 97 % of control

NS(=O)(=O)c1ccc(NC(=O)Nc2cccc3ccccc23)cc1
inactive: [7] 91 % of control | [8] 101 % of control and 108 % of control | dose: 100.0 mg/kg/injection, schedule: Q04DX002 (ip), vehicle: saline with Tween-80 95 % of control and 100 % of control | [9] 105 % of control | [10] 87 % of control | [11] 93 % of control and 100 % of control | dose: 200.0 mg/kg/injection, schedule: Q04DX002 (ip), vehicle: saline with Tween-80 98 % of control and 100 % of control | [12] 103 % of control | [13] 94 % of control | [14] 96 % of control and 105 % of control | dose: 400.0 mg/kg/injection, schedule: Q04DX002 (ip), vehicle: saline with Tween-80 93 % of control and 96 % of control | [15] 108 % of control

CCn1c2ccccc2c2cc3c(cc21)C(C)=NCC3
inactive: dose: 25.0 mg/kg/injection, schedule: Q04DX002 (ip), vehicle: Klucel (hydroxypropylcellulose) (HPC) 112 % of control | [16] 102 % of control | [17] 102 % of control

C/C=N/NC(=O)c1ccc[n+](C)c1
inactive: [18] 93 % of control | [19] 96 % of control | dose: 200.0 mg/kg/injection, schedule: Q01DX009 (ip), vehicle: saline 96 % of control

Cc1c([N+](=O)[O-])oc2ccc(Cl)cc12
inactive: [16] 93 % of control | [1] 100 % of control | [17] 87 % of control | [3] 91 % of control | dose: 200.0 mg/kg/injection, schedule: Q04DX002 (ip), vehicle: Klucel (hydroxypropylcellulose) (HPC) 93 % of control | [5] 95 % of control

Clc1ccc2c(NCCNC3CCCCC3)ccnc2c1
inactive: dose: 9.38 mg/kg/injection, schedule: Q01DX001 (ip), vehicle: saline 105 % of control | dose: 18.75 mg/kg/injection, schedule: Q01DX001 (ip), vehicle: saline 100 % of control | dose: 37.5 mg/kg/injection, schedule: Q01DX001 (ip), vehicle: saline 108 % of control

N#[N+]c1c(C(=O)O)[nH]c(=O)[nH]c1=O
active: dose: 50.0 mg/kg/injection, schedule: Q01DX Z (ip), vehicle: carboxymethylcellulose (CMC) 155 % of control
inactive: dose: 6.25 mg/kg/injection, schedule: Q01DX009 (ip), vehicle: saline 99 % of control | dose: 10.0 mg/kg/injection, schedule: Q01DX001 (ip), vehicle: carboxymethylcellulose (CMC) 92 % of control | dose: 12.5 mg/kg/injection, schedule: Q01DX009 (ip), vehicle: saline with Tween-80 98 % of control | dose: 12.5 mg/kg/injection, schedule: Q01DX009 (ip), vehicle: saline 96 % of control | dose: 12.5 mg/kg/injection, schedule: Q01DX Z (ip), vehicle: methylcellulose (MC) 94 % of control | dose: 20.0 mg/kg/injection, schedule: Q01DX001 (ip), vehicle: carboxymethylcellulose (CMC) 95 % of control | dose: 20.0 mg/kg/injection, schedule: Q01DX009 (ip), vehicle: carboxymethylcellulose (CMC) 96 % of control | dose: 25.0 mg/kg/injection, schedule: Q01DX009 (ip), vehicle: saline with Tween-80 102 % of control | dose: 25.0 mg/kg/injection, schedule: Q01DX009 (ip), vehicle: saline 98 % of control | dose: 25.0 mg/kg/injection, schedule: Q01DX Z (ip), vehicle: methylcellulose (MC) 101 % of control | dose: 40.0 mg/kg/injection, schedule: Q01DX001 (ip), vehicle: carboxymethylcellulose (CMC) 104 % of control | dose: 40.0 mg/kg/injection, schedule: Q01DX009 (ip), vehicle: carboxymethylcellulose (CMC) 108 % of control | dose: 50.0 mg/kg/injection, schedule: Q01DX009 (ip), vehicle: saline with Tween-80 95 % of control and 92 % of control | [18] 99 % of control | dose: 50.0 mg/kg/injection, schedule: Q01DX Z (ip), vehicle: methylcellulose (MC) 121 % of control | dose: 80.0 mg/kg/injection, schedule: Q01DX001 (ip), vehicle: carboxymethylcellulose (CMC) 101 % of control | dose: 80.0 mg/kg/injection, schedule: Q01DX009 (ip), vehicle: carboxymethylcellulose (CMC) 96 % of control | [8] 107 % of control and 92 % of control | [19] 103 % of control | dose: 100.0 mg/kg/injection, schedule: Q01DX Z (ip), vehicle: methylcellulose (MC) 100 % of control | [9] 95 % of control | dose: 150.0 mg/kg/injection, schedule: Q01DX009 (ip), vehicle: saline 90 % of control | [11] 97 % of control | [12] 97 % of control | dose: 300.0 mg/kg/injection, schedule: Q01DX009 (ip), vehicle: saline 101 % of control | [15] 103 % of control | dose: 800.0 mg/kg/injection, schedule: Q04DX003 (ip), vehicle: saline with Tween-80 97 % of control

O=C(c1ccccc1)c1ccc(Oc2ccc(C(=O)c3ccccc3)cc2)cc1
inactive: dose: 75.0 mg/kg/injection, schedule: Q04DX003 (ip), vehicle: Klucel (hydroxypropylcellulose) (HPC) 94 % of control | [2] 101 % of control | dose: 150.0 mg/kg/injection, schedule: Q04DX003 (ip), vehicle: Klucel (hydroxypropylcellulose) (HPC) 96 % of control | [4] 96 % of control | dose: 300.0 mg/kg/injection, schedule: Q04DX003 (ip), vehicle: Klucel (hydroxypropylcellulose) (HPC) 107 % of control | [6] 95 % of control

CCCCCCCCCCCCC1C2CCCCC2CC2CCCCC21 (stereo not drawn)
inactive: [7] 94 % of control | [10] 94 % of control | [13] 96 % of control

Cc1ccccc1NC(=O)c1ccccc1
inactive: [9] 100 % of control | [12] 98 % of control | [15] 98 % of control

CCN(CC)CCSc1ccnc2cc(Cl)ccc12
inactive: dose: 100.0 mg/kg/injection, schedule: Q04DX003 (ip), vehicle: saline 94 % of control | dose: 200.0 mg/kg/injection, schedule: Q04DX003 (ip), vehicle: saline 96 % of control | dose: 400.0 mg/kg/injection, schedule: Q04DX003 (ip), vehicle: saline 100 % of control

CCOC(=O)CCCc1ccccc1
inactive: [9] 107 % of control | [12] 90 % of control | [15] 93 % of control

COc1cc(Cl)ccc1NC(=O)COc1ccc(Cl)cc1
inactive: [8] 92 % of control | [11] 92 % of control | [14] 86 % of control

CCN(C(=O)Nc1cccc2ccccc12)c1ccccc1C
inactive: dose: 100.0 mg/kg/injection, schedule: Q01DX009 (ip), vehicle: gum acacia 100 % of control | dose: 100.0 mg/kg/injection, schedule: Q04DX003 (ip), vehicle: gum acacia 98 % of control | dose: 200.0 mg/kg/injection, schedule: Q01DX009 (ip), vehicle: gum acacia 96 % of control | dose: 200.0 mg/kg/injection, schedule: Q04DX003 (ip), vehicle: gum acacia 98 % of control | dose: 400.0 mg/kg/injection, schedule: Q01DX009 (ip), vehicle: gum acacia 86 % of control | dose: 400.0 mg/kg/injection, schedule: Q04DX003 (ip), vehicle: gum acacia 96 % of control

COc1ccc([N+](=O)[O-])cc1NC(=O)C(Cl)Cl
inactive: dose: 100.0 mg/kg/injection, schedule: Q01DX001 (ip), vehicle: carboxymethylcellulose (CMC) 99 % of control | dose: 200.0 mg/kg/injection, schedule: Q01DX001 (ip), vehicle: carboxymethylcellulose (CMC) 100 % of control | dose: 400.0 mg/kg/injection, schedule: Q01DX001 (ip), vehicle: carboxymethylcellulose (CMC) 110 % of control
